# Test system: T-47D spheroids with HUVEC/MSC, viability
# Experiment: Anticancer human tumor T-47D cell line growth inhibition [PI3K];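 also: spheroids exposed to agents for seven days before reading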;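 as to viability, T/C: percent of DMSO vehicle control luminescence so 100% = untreated growth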
# Settings: for IC50: curve of first compound; for viability, T/C: stronger effect = lower value
# How it was run: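 Tumor cells grown as multi-cell spheroids with HUVEC endothelial cells and MSC fibroblast-like stroma were treated with targeted agents combined with inavolisib, alpelisib, duvelisib or copanlisib. Doses fell in half-log steps from near clinical Cmax, else from 10 microM. Viability was measured.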
smiles,measurement,setting,value
CC(=O)c1c(C)c2cnc(Nc3ccc(N4CCNCC4)cn3)nc2n(C2CCCC2)c1=O + COc1c(OCCCN2CCOCC2)ccc2c3n(c(=NC(=O)c4cnc(N)nc4)nc12)CCN3,IC50,second compound 0.00316 µM,> 100 nM
same,IC50,second compound 0.01 µM,> 100 nM
same,IC50,second compound 0.0316 µM,39.7 nM
same,IC50,second compound 0.1 µM,< 0.316 nM
same,IC50,second compound 0.316 µM,< 0.316 nM
same,IC50,second compound 1 µM,< 0.316 nM
same,"viability, T/C","second compound 0.00316 µM, first compound 0.000316 µM",120%
same,"viability, T/C","second compound 0.00316 µM, first compound 0.001 µM",118%
same,"viability, T/C","second compound 0.00316 µM, first compound 0.00316 µM",95.3%
same,"viability, T/C","second compound 0.00316 µM, first compound 0.01 µM",95.6%
same,"viability, T/C","second compound 0.00316 µM, first compound 0.0316 µM",80.5%
same,"viability, T/C","second compound 0.00316 µM, first compound 0.1 µM",85%
same,"viability, T/C","second compound 0.01 µM, first compound 0.000316 µM",89.3%
same,"viability, T/C","second compound 0.01 µM, first compound 0.001 µM",104%
same,"viability, T/C","second compound 0.01 µM, first compound 0.00316 µM",95.5%
same,"viability, T/C","second compound 0.01 µM, first compound 0.01 µM",83.4%
same,"viability, T/C","second compound 0.01 µM, first compound 0.0316 µM",84.3%
same,"viability, T/C","second compound 0.01 µM, first compound 0.1 µM",74.2%
same,"viability, T/C","second compound 0.0316 µM, first compound 0.000316 µM",71.3%
same,"viability, T/C","second compound 0.0316 µM, first compound 0.001 µM",64.8%
same,"viability, T/C","second compound 0.0316 µM, first compound 0.00316 µM",74.2%
same,"viability, T/C","second compound 0.0316 µM, first compound 0.01 µM",68.3%
same,"viability, T/C","second compound 0.0316 µM, first compound 0.0316 µM",51.8%
same,"viability, T/C","second compound 0.0316 µM, first compound 0.1 µM",42.7%
same,"viability, T/C","second compound 0.1 µM, first compound 0.000316 µM",35.3%
same,"viability, T/C","second compound 0.1 µM, first compound 0.001 µM",42.8%
same,"viability, T/C","second compound 0.1 µM, first compound 0.00316 µM",34%
same,"viability, T/C","second compound 0.1 µM, first compound 0.01 µM",32.9%
same,"viability, T/C","second compound 0.1 µM, first compound 0.0316 µM",26.6%
same,"viability, T/C","second compound 0.1 µM, first compound 0.1 µM",27.1%
same,"viability, T/C","second compound 0.316 µM, first compound 0.000316 µM",14.5%
same,"viability, T/C","second compound 0.316 µM, first compound 0.001 µM",17.1%
same,"viability, T/C","second compound 0.316 µM, first compound 0.00316 µM",19.7%
same,"viability, T/C","second compound 0.316 µM, first compound 0.01 µM",13.2%
same,"viability, T/C","second compound 0.316 µM, first compound 0.0316 µM",15%
same,"viability, T/C","second compound 0.316 µM, first compound 0.1 µM",13.6%
same,"viability, T/C","second compound 1 µM, first compound 0.000316 µM",5.84%
same,"viability, T/C","second compound 1 µM, first compound 0.001 µM",7.18%
same,"viability, T/C","second compound 1 µM, first compound 0.00316 µM",7.6%
same,"viability, T/C","second compound 1 µM, first compound 0.01 µM",5.71%
same,"viability, T/C","second compound 1 µM, first compound 0.0316 µM",7.91%
same,"viability, T/C","second compound 1 µM, first compound 0.1 µM",6.26%
Cn1cnc2c(F)c(Nc3ccc(Br)cc3Cl)c(C(=O)NOCCO)cc21 + CC(Nc1ccc2c(c1)OCCn1cc(N3C(=O)OCC3C(F)F)nc1-2)C(N)=O,IC50,second compound 0.00316 µM,> 3000 nM
same,IC50,second compound 0.01 µM,> 3000 nM
same,IC50,second compound 0.0316 µM,> 3000 nM
same,IC50,second compound 0.1 µM,> 3000 nM
same,IC50,second compound 0.316 µM,> 3000 nM
same,IC50,second compound 1 µM,294 nM
same,"viability, T/C","second compound 0.00316 µM, first compound 0.00949 µM",105%
same,"viability, T/C","second compound 0.00316 µM, first compound 0.03 µM",84.7%
same,"viability, T/C","second compound 0.00316 µM, first compound 0.0949 µM",99.8%
same,"viability, T/C","second compound 0.00316 µM, first compound 0.3 µM",91.8%
same,"viability, T/C","second compound 0.00316 µM, first compound 0.949 µM",86.1%
same,"viability, T/C","second compound 0.00316 µM, first compound 3 µM",79.2%
same,"viability, T/C","second compound 0.01 µM, first compound 0.00949 µM",97.5%
same,"viability, T/C","second compound 0.01 µM, first compound 0.03 µM",80.4%
same,"viability, T/C","second compound 0.01 µM, first compound 0.0949 µM",96.1%
same,"viability, T/C","second compound 0.01 µM, first compound 0.3 µM",98.8%
same,"viability, T/C","second compound 0.01 µM, first compound 0.949 µM",82.3%
same,"viability, T/C","second compound 0.01 µM, first compound 3 µM",88.5%
same,"viability, T/C","second compound 0.0316 µM, first compound 0.00949 µM",95.5%
same,"viability, T/C","second compound 0.0316 µM, first compound 0.03 µM",80.5%
same,"viability, T/C","second compound 0.0316 µM, first compound 0.0949 µM",101%
same,"viability, T/C","second compound 0.0316 µM, first compound 0.3 µM",96.6%
same,"viability, T/C","second compound 0.0316 µM, first compound 0.949 µM",97.8%
same,"viability, T/C","second compound 0.0316 µM, first compound 3 µM",86.4%
same,"viability, T/C","second compound 0.1 µM, first compound 0.00949 µM",85.6%
same,"viability, T/C","second compound 0.1 µM, first compound 0.03 µM",86.1%
same,"viability, T/C","second compound 0.1 µM, first compound 0.0949 µM",83.5%
same,"viability, T/C","second compound 0.1 µM, first compound 0.3 µM",90.2%
same,"viability, T/C","second compound 0.1 µM, first compound 0.949 µM",86.5%
same,"viability, T/C","second compound 0.1 µM, first compound 3 µM",83.8%
same,"viability, T/C","second compound 0.316 µM, first compound 0.00949 µM",71.3%
same,"viability, T/C","second compound 0.316 µM, first compound 0.03 µM",75.3%
same,"viability, T/C","second compound 0.316 µM, first compound 0.0949 µM",70.3%
same,"viability, T/C","second compound 0.316 µM, first compound 0.3 µM",66.5%
same,"viability, T/C","second compound 0.316 µM, first compound 0.949 µM",71.8%
same,"viability, T/C","second compound 0.316 µM, first compound 3 µM",61.1%
same,"viability, T/C","second compound 1 µM, first compound 0.00949 µM",54%
same,"viability, T/C","second compound 1 µM, first compound 0.03 µM",56.8%
same,"viability, T/C","second compound 1 µM, first compound 0.0949 µM",59.2%
same,"viability, T/C","second compound 1 µM, first compound 0.3 µM",49.7%
same,"viability, T/C","second compound 1 µM, first compound 0.949 µM",47.8%
same,"viability, T/C","second compound 1 µM, first compound 3 µM",52.2%
